Laboratory results as given in US6287859A, “Identification, functional expression and chromosal localization of a sustained human proton-gated cation channel” (priority 1999, dated 2001).
“Also recorded” adds a separate entry of the source. Where two headings read alike, the source gives them in different places.

How the values were obtained:
rASIC1A channel = target: T1, rASIC1A channel (Rattus norvegicus, UniProt P55926); assay: Proton-activated rASIC1A current in Xenopus oocytes (voltage clamp and outside-out patch); type: cell-based
T1 construct: cDNA isolated from rat brain codes for a protein of 526 amino acids; expressed in transfected cells; host or cells: Xenopus laevis oocytes injected with cRNA
T1 sequence (P55926 1-526): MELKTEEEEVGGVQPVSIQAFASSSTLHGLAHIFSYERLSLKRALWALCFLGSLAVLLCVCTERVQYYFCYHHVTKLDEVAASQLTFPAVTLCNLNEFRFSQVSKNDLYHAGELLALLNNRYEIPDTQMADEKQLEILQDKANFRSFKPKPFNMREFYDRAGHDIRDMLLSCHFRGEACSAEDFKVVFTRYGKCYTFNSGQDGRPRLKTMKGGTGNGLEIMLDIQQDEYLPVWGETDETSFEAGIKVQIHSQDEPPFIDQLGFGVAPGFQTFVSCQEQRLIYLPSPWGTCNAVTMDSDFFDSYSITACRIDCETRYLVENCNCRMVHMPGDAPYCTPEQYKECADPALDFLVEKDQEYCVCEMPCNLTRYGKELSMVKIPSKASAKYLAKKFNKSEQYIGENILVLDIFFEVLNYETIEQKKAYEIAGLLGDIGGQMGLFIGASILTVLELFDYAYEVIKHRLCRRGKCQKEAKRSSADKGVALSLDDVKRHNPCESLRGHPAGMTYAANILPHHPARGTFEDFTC
Protocol: 0.25 ng of cRNA was injected into the Xenopus laevis oocytes and the recording microelectrodes for the imposed voltage and for the patch-clamp were installed two days after the injection. The bath solutions for the outside-out patch recordings and the pipettes for the outside-out patch and total cells recordings contained: 140 mM KCl (or NMDG), 2 mM MgCl2, 5 mM EGTA, 10 mM Hepes, pH 7.4 (with KOH). The pipettes for the outside-out patch recordings and the bath solutions for the outside-out patch and total cells recordings contained: 140 mM NaCl (or LiCl or NMDGCl), 2 mM MgCl2, 1.8 mM CaCl2, 10 mM Hepes, pH 7.4 (adjusted with HCl, NaOH, LiOH or TMAOH). The intracellular acidification of the oocytes was implemented by injecting […] of the internal solution at pH 2 or by perfusion and withdrawal of a bath medium containing 20 mM NH4 Cl. […] The data were sampled at 2 kHz and filtered at 500 Hz for the analysis (Logiciel Biopatch).

[1] = tested on: proton-activated cationic channels of sensory neurons; details: refs [18], [19]; cited from earlier work
hASIC3 [2] = target: T2, hASIC3 (Homo sapiens, UniProt Q9UHC3); assay: hASIC3 single channel currents in outside-out patches from transfected COS cells; type: cell-based; details: 100 μM, outside-out patch, -60 mV, resting pH 7.3
T2 construct: expressed in transfected cells; host or cells: COS cells (DEAE-Dextran, hASIC3-PCI with CD8 marker)
T2 sequence (Q9UHC3 1-531): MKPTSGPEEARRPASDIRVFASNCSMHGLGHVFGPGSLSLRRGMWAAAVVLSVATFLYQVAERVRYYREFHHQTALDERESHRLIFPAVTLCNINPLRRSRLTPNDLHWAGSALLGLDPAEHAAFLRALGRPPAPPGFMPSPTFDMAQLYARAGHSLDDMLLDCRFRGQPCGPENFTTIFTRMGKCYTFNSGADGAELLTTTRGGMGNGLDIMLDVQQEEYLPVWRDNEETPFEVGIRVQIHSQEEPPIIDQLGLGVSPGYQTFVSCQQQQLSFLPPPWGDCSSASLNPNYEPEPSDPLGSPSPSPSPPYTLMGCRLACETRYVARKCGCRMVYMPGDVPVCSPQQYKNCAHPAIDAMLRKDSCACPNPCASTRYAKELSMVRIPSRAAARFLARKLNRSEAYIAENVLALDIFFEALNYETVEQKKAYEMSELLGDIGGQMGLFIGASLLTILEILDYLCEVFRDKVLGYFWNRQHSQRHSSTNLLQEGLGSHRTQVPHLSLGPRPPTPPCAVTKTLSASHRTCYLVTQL
Description: (§1) The vector containing the hASIC3 coding sequence was linearized with NotI and blunt ended with T4 DNA polymerase. After inactivation of the T4 DNA polymerase, the hASIC3 coding sequence was excised with EcoRI and subsequently subcloned into the EcoRI/SalI (blunt) digested PCI expression vector (Promega). COS cells, at a density of 20.000 cells per 35 mm diameter petri dish, were transfected with a mix of CD8 and hASIC3-PCI (1:5) using the DEAE-Dextran method. Cells were used for electrophysiological measurements one to three days after transfection. Successfully transfected cells were recognised by their ability to fix CD8-antibody-coated beads. Ion currents were recorded using either the whole cell or outside-out patch-clamp technique. The pipette solution contained (in mM): KCl 120, NaCl 30, MgCl2 2, EGTA 5, HEPES 10 (pH 7.2). The bath solution contained in mM: NaCl 140, KCl 5, MgCl2 2, CaCl2 2, HEPES 10 (pH 7.3). Changes in extracellular pH were induced by opening one out of six outlets of a microperfusion system in front of the cell or patch. Test solutions having a pH of less then 6 were buffered with 10 mM MES rather than HEPES but were identical to the control solution in all other respects. Experiments were carried out at room temperature (20-24° C.).

hASIC3 [3] = target: T2, hASIC3; assay: H+-gated hASIC3 whole-cell current in transfected COS cells; type: cell-based
Description: as §1

perception of acid taste = details: ref [2]; cited from earlier work
[4] = H+-activated current, pH change from pH 7.4 to pH 6, -70 mV, oocytes, outside-out patch at 0 mV, read-out: Kd, reversible block of the rASIC1A channel

| Structure (SMILES) | Kd (rASIC1A channel; [4]) | Effect on the inflowing current activated by H+ in sensory neurons [1] | Effect on the sustained hASIC3 current (hASIC3 [3]; COS cells) | further results |
| --- | --- | --- | --- | --- |
| CCN(c1nc(N)c(C(=O)NC(=N)N)nc1Cl)C(C)C [EIPA, ethylisopropylamiloride] | 10 µM | inhibited | – | – |
| N=C(N)NC(=O)c1nc(Cl)c(N)nc1N [amiloride] | – | inhibited | virtually not affected | Effect on spontaneous hASIC3 channel activity at pH 7.3 (hASIC3 [2]): inhibited; also recorded: disappears; Kd (rASIC1A channel): 10 µM; IC50 (hASIC3 [3]; cells clamped at -60 mV, currents as fraction of mean current in absence of drug, read-out: K0.5, dose-response curve for inhibition of hASIC3 current): 15.9 µM; Kd (hASIC3 [3]; transient current, COS cells, read-out: KD, inhibition of the transient hASIC3 current): 15.9 µM; Effect on perception of acid taste (perception of acid taste): inhibits the perception of acid taste |
| NC(=NCc1ccccc1)NC(=O)c1nc(Cl)c(N)nc1N [benzamil] | 10 µM | – | – | – |
| Nc1nc(N)c2nc(-c3ccccc3)c(N)nc2n1 [triamterene] | – | – | virtually not affected | Effect on the transient hASIC3 current (hASIC3 [3]; transient current, COS cells): inhibited |
